Results on 74 molecules are retold here after ChEMBL document CHEMBL1134302, “Cheminformatic models to predict binding affinities to human serum albumin” (J Med Chem, 2001).

This series concerns the target Albumin (Homo sapiens, UniProt P02768). The experiment in a line: Binding constant against human serum albumin (HSA).

Sequence of Albumin (P02768 whole entry): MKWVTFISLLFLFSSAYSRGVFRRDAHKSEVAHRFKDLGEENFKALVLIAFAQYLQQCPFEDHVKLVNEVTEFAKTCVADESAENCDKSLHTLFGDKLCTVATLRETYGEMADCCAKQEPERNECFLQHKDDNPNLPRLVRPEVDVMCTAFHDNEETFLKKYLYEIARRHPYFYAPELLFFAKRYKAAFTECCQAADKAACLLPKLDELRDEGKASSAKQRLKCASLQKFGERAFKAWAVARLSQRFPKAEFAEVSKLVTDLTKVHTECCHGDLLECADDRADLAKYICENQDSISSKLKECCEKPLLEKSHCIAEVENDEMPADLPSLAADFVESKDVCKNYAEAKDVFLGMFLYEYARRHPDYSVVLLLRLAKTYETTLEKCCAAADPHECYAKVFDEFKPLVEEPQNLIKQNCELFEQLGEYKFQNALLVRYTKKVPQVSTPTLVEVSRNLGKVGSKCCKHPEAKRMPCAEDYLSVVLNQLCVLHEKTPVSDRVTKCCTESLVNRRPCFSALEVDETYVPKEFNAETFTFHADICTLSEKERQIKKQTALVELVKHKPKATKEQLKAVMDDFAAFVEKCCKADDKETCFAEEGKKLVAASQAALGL

Turning to `CC(NC(C)(C)C)C(=O)c1cccc(Cl)c1` (centres undefined) [BUPROPION], the “Log K'” value came out at 0.05.
The figure for `CC(=O)[C@H]1CC[C@H]2[C@@H]3CCC4=CC(=O)CC[C@]4(C)[C@H]3CC[C@]12C` [PROGESTERONE] is 0.59.
The figure for `CN(C)c1ccc(O)c2c1C[C@H]1C[C@H]3[C@H](N(C)C)C(O)=C(C(N)=O)C(=O)[C@@]3(O)C(O)=C1C2=O` [MINOCYCLINE] is 0.21; for `Nc1nnc(-c2cccc(Cl)c2Cl)c(N)n1` [LAMOTRIGINE] it is 0.13; for `Nc1ccc(S(=O)(=O)Nc2ccnn2-c2ccccc2)cc1` [SULFAPHENAZOLE] it is 0.21.
The figure for `CC(C)(C)NC[C@H](O)COc1nsnc1N1CCOCC1` [TIMOLOL] is 0.33; for `CN/C(=N/CCSCc1nc[nH]c1C)NC#N` [CIMETIDINE] it is 0.44; for `CNCCCN1c2ccccc2CCc2ccccc21` [DESIPRAMINE] it is 0.61.
As to `CC(=O)O[C@H]1C[C@@]2(C)[C@@H](C[C@@H](O)[C@H]3[C@@]4(C)CC[C@@H](O)[C@@H](C)[C@@H]4CC[C@@]32C)/C1=C(\CCC=C(C)C)C(=O)O` [FUSIDIC ACID], the “Log K'” value stood at 0.33.
The figure for `CC(C)NCC(O)COc1cccc2[nH]ccc12` (centres undefined) [PINDOLOL] is 0.13.
In the case of `COc1cc(Cc2cnc(N)nc2N)cc(OC)c1OC` [TRIMETHOPRIM] it was 0.26; in that of `CN(C)[C@@H]1C(O)=C(C(N)=O)C(=O)[C@@]2(O)C(O)=C3C(=O)c4c(O)cccc4C[C@H]3C[C@@H]12` [SANCYCLINE], 0.21; in that of `C=CCOc1ccccc1OCC(O)CNC(C)C` (centres undefined) [OXPRENOLOL], 0.15.
Take `CC(=O)Oc1ccccc1C(=O)O` [ASPIRIN]: the “Log K'” value is 1.39.
The figure for `CO[C@@H]1[C@@H](OC(N)=O)[C@@H](O)[C@H](Oc2ccc3c(O)c(NC(=O)c4ccc(O)c(CC=C(C)C)c4)c(=O)oc3c2C)OC1(C)C` [NOVOBIOCIN] is 0.35; for `C=C[C@H]1C[N@@]2CC[C@H]1C[C@@H]2[C@@H](O)c1ccnc2ccc(OC)cc12` [QUINIDINE] it is 0.44; for `CCCCC1C(=O)N(c2ccccc2)N(c2ccc(O)cc2)C1=O` (centres undefined) [OXYPHENBUTAZONE ANHYDROUS] it is 0.02.
As for `Cc1cc(=O)n(-c2ccccc2)n1C` [ANTIPYRINE], the “Log K'” value is given as 0.69.
In the case of `C[C@]12C=CC(=O)C=C1CC[C@@H]1[C@@H]2[C@@H](O)C[C@@]2(C)[C@H]1CC[C@]2(O)C(=O)CO` [PREDNISOLONE] it was 0.4.
With `CNS(=O)(=O)Cc1ccc2[nH]cc(CCN(C)C)c2c1`, the “Log K'” value was determined as 0.05.
In the case of `NS(=O)(=O)c1cc2c(cc1Cl)NCNS2(=O)=O` [HYDROCHLOROTHIAZIDE] it was 0.42; in that of `C[C@H]1c2cccc(O)c2C(=O)C2=C(O)[C@]3(O)C(=O)C(C(N)=O)=C(O)[C@@H](N(C)C)[C@@H]3[C@@H](O)[C@@H]21.O` [DOXYCYCLINE], 0.01; in that of `CC(C)(C)NCC(O)COc1cccc2c1CC(O)C(O)C2` (centres undefined) [NADOLOL], 0.4.
In the case of `CC(=O)Nc1ccc(O)cc1` [ACETAMINOPHEN] it was 0.81; in that of `Cc1ccc(/C(=C\CN2CCCC2)c2cccc(/C=C/C(=O)O)n2)cc1` [ACRIVASTINE], 0.02; in that of `CCn1cc(C(=O)O)c(=O)c2cc(F)c(N3CCNCC3)cc21` [NORFLOXACIN], 0.14.
Turning to `CNC(=C[N+](=O)[O-])NCCSCc1ccc(CN(C)C)o1` [RANITIDINE], the “Log K'” value is reported as 0.1.
As to `C[C@H]1COc2c(N3CCN(C)CC3)c(F)cc3c(=O)c(C(=O)O)cn1c23.C[C@H]1COc2c(N3CCN(C)CC3)c(F)cc3c(=O)c(C(=O)O)cn1c23.O` [LEVOFLOXACIN], the “Log K'” value is given as 0.14.
Regarding `C[C@H]1C[C@@H]2[C@H]([C@@H](O)C[C@@]3(C)[C@H]2CC[C@]3(O)C(=O)CO)[C@@]2(C)C=CC(=O)C=C12` [METHYLPREDNISOLONE], the “Log K'” value is recorded as 0.22.
The figure for `CCN(CC)CCOC(=O)c1ccc(N)cc1` [PROCAINE] is 0.19; for `C=C[C@H]1C[N@@]2CC[C@H]1C[C@H]2[C@H](O)c1ccnc2ccc(OC)cc12` [QUININE] it is 0.49.
In the case of `O=C(N[C@H](CO)[C@H](O)c1ccc([N+](=O)[O-])cc1)C(Cl)Cl` [CHLORAMPHENICOL] it was 0.46; in that of `C[C@]12CCC(=O)C=C1CC[C@@H]1[C@@H]2[C@@H](O)C[C@@]2(C)[C@H]1CC[C@]2(O)C(=O)CO` [HYDROCORTISONE], 0.4; in that of `CC1(C)S[C@@H]2[C@H](NC(=O)COc3ccccc3)C(=O)N2[C@H]1C(=O)O` [PENICILLIN V], 0.69.
In the case of `O=C(CCCN1CC=C(n2c(=O)[nH]c3ccccc32)CC1)c1ccc(F)cc1` [DROPERIDOL] it was 0.43; in that of `COCCc1ccc(OCC(O)CNC(C)C)cc1` (centres undefined) [METOPROLOL], 0.29; in that of `C=CCc1ccccc1OCC(O)CNC(C)C` (centres undefined) [ALPRENOLOL], 0.04.
Consider `CN(Cc1cnc2nc(N)nc(N)c2n1)c1ccc(C(=O)N[C@@H](CCC(=O)O)C(=O)O)cc1` [METHOTREXATE], for which the “Log K'” value came to 0.77.
`CO/N=C(\C(=O)N[C@@H]1C(=O)N2C(C(=O)O)=C(COC(N)=O)CS[C@H]12)c1ccco1` [CEFUROXIME]: the “Log K'” value amounted to 1.33.
On to `CN(C)CCCN1c2ccccc2Sc2ccccc21` [PROMAZINE], for which the “Log K'” value came out at 0.92.
With `C[C@]12CC[C@H]3[C@@H](CCC4=CC(=O)CC[C@@]43C)[C@@H]1CC[C@@H]2O` [TESTOSTERONE], the “Log K'” value is 0.74.
With `CCC(C)n1ncn(-c2ccc(N3CCN(c4ccc(OC[C@H]5CO[C@](Cn6cncn6)(c6ccc(Cl)cc6Cl)O5)cc4)CC3)cc2)c1=O` (some centres undefined) [ITRACONAZOLE], the “Log K'” value is 1.04.
In the case of `CC(C)NCC(O)COc1cccc2ccccc12` (centres undefined) [PROPRANOLOL], the “Log K'” value came to 0.28.
In the case of `CN(C)CCCN1c2ccccc2Sc2ccc(C(F)(F)F)cc21` [TRIFLUPROMAZINE] it was 1.05; in that of `COc1cc2nc(N3CCN(C(=O)C4CCCO4)CC3)nc(N)c2cc1OC` (centres undefined) [TERAZOSIN], 0.16.
Take `CC(=O)N1CCN(c2ccc(OC[C@H]3CO[C@](Cn4ccnc4)(c4ccc(Cl)cc4Cl)O3)cc2)CC1` [KETOCONAZOLE]: the “Log K'” value was determined as 0.84.
In the case of `Cc1ccc(S(=O)(=O)NC(=O)NN2CCCCCC2)cc1` [TOLAZAMIDE] it was 0.42; in that of `CCCCNc1cc(C(=O)O)cc(S(N)(=O)=O)c1Oc1ccccc1` [BUMETANIDE], 0.03.
In the case of `Clc1ccccc1C(c1ccccc1)(c1ccccc1)n1ccnc1` [CLOTRIMAZOLE] it was 1.34; in that of `CN(C/C=C/C#CC(C)(C)C)Cc1cccc2ccccc12` [TERBINAFINE], 1.17; in that of `COc1cc2nc(N3CCN(C(=O)c4ccco4)CC3)nc(N)c2cc1OC` [PRAZOSIN], 0.06.
The figure for `CCOC(=O)C(C)(C)Oc1ccc(Cl)cc1` [CLOFIBRATE] is 0.27.
For `N[C@@H](Cc1c[nH]c2ccccc12)C(=O)O` [TRYPTOPHAN], the “Log K'” value worked out at 0.78.
As to `CC1(C)S[C@@H]2[C@H](NC(=O)[C@H](N)c3ccc(O)cc3)C(=O)N2[C@H]1C(=O)O` [AMOXICILLIN], the “Log K'” value is 1.21.
For `CN(C)CCCN1c2ccccc2CCc2ccccc21` [IMIPRAMINE], the “Log K'” value came out at 0.75.
The figure for `CCCNC(=O)NS(=O)(=O)c1ccc(Cl)cc1` [CHLORPROPAMIDE] is 0.44; for `C[C@H](CS)C(=O)N1CCC[C@H]1C(=O)O` [CAPTOPRIL] it is 2.69.
The molecule `CN(C)c1cccc2c(S(=O)(=O)NCC(=O)O)cccc12` [DANSYLGLYCINE] gave a Log K' of -0.26.
In the case of `Clc1cccc(Cl)c1N=C1NCCN1` [CLONIDINE] it was 0.13.
The figure for `CN(C)[C@@H]1C(O)=C(C(N)=O)C(=O)[C@@]2(O)C(O)=C3C(=O)c4c(O)cccc4[C@@](C)(O)[C@H]3C[C@@H]12` [TETRACYCLINE] is 0.08; for `CO/N=C(\C(=O)N[C@@H]1C(=O)N2C(C(=O)OC(C)OC(C)=O)=C(COC(N)=O)CS[C@H]12)c1ccco1` (some centres undefined) [CEFUROXIME AXETIL] it is 0.56; for `CC[C@@]1(O)C(=O)OCc2c1cc1n(c2=O)Cc2cc3ccccc3nc2-1` [CAMPTOTHECIN] it is 0.08.
As to `COc1ccc(Cl)cc1C(=O)NCCc1ccc(S(=O)(=O)NC(=O)NC2CCCCC2)cc1` [GLYBURIDE], the “Log K'” value was 0.68.
Turning to `CC(CCc1ccccc1)NCC(O)c1ccc(O)c(C(N)=O)c1` (centres undefined) [LABETALOL], the “Log K'” value is 0.14.
The figure for `CC(C)NCC(O)c1ccc(NS(C)(=O)=O)cc1` (centres undefined) [SOTALOL] is 0.44; for `C[C@H]1O[C@@H](O[C@H]2[C@@H](O)C[C@H](O[C@H]3[C@@H](O)C[C@H](O[C@H]4CC[C@@]5(C)[C@H](CC[C@@H]6[C@@H]5CC[C@]5(C)[C@@H](C7=CC(=O)OC7)CC[C@]65O)C4)O[C@@H]3C)O[C@@H]2C)C[C@H](O)[C@@H]1O` [DIGITOXIN] it is 0.13.
The figure for `C[C@]12CC[C@@H]3c4ccc(O)cc4CC[C@H]3[C@@H]1CC[C@@H]2O` [ESTRADIOL] is 0.68; for `Cc1nccn1CC1CCc2c(c3ccccc3n2C)C1=O` (centres undefined) [ONDANSETRON] it is 0.37.
The figure for `Nc1nc(=O)[nH]cc1F` [FLUCYTOSINE] is 1.11.
As to `O=C(O)c1cc(=O)c2c(OCC(O)COc3cccc4oc(C(=O)O)cc(=O)c34)cccc2o1` [CROMOLYN], the “Log K'” value was 1.07.
The figure for `CCCC(=O)Nc1ccc(OCC(O)CNC(C)C)c(C(C)=O)c1` (centres undefined) [ACEBUTOLOL] is 0.21; for `CCCCNc1ccc(C(=O)OCCN(C)C)cc1` [TETRACAINE] it is 0.32.
In the case of `Cn1c(=O)c2c(ncn2C)n(C)c1=O` [CAFFEINE] it was 0.92; in that of `O=c1c2ccccc2[se]n1-c1ccccc1` [EBSELEN], 1.04.
